Assay results from the supplement of paper PMC11061612.

Experiments:
[1] = test system: L-1236 (Hodgkin's Lymphoma); test: combination Emax (second highest fraction inhibited in the dose matrix, 72 h); higher = more inhibition; extreme values may be limits of the assay
Outline: (§1)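 Bliss excess equals the observed combination effect minus the expected value EA + EB − EA·EB, where EA and EB are the effects of each agent alone. Combination Emax is the second-highest inhibition within the matrix. Inhibition was scaled from CellTiter-Glo 2.0 luminescence, with 0 set by vehicle wells and 1 by blank wells, after 72 hours of two-drug dosing of cells plated in 1536-well plates.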

[2] = test system: RKN (Other Solid Carcinomas); test: as above
Outline: as §1

[3] = test system: CAL-62 (Thyroid Gland Carcinoma); test: as above
Outline: as §1

[4] = test system: PANC-03-27 (Pancreatic Carcinoma); test: as above
Outline: as §1

[5] = test system: SHP-77 (Small Cell Lung Carcinoma); test: as above
Outline: as §1

[6] = test system: VAL (B-Cell Non-Hodgkin's Lymphoma); test: as above
Outline: as §1

[7] = test system: HSC-39 (Gastric Carcinoma); test: as above
Outline: as §1

[8] = test system: TE-8 (Esophageal Squamous Cell Carcinoma); test: as above
Outline: as §1

[9] = test system: LK-2 (Squamous Cell Lung Carcinoma); test: as above
Outline: as §1

[10] = test system: MKN45 (Gastric Carcinoma); test: as above
Outline: as §1

[11] = test system: PSN1 (Pancreatic Carcinoma); test: as above
Outline: as §1

[12] = test system: PC-3_[JPC-3] (Lung Adenocarcinoma); test: as above
Outline: as §1

SF539 (Glioblastoma) = test: as above
Outline: as §1

[13] = test system: SK-PN-DW (Other Solid Carcinomas); test: as above
Outline: as §1

NB12 (Neuroblastoma) = test: as above
Outline: as §1

IST-MES1 (Mesothelioma) [14] = test: as above
Outline: as §1

[15] = test system: L-1236 (Hodgkin's Lymphoma); test: Bliss excess, mean over the matrix (fraction); higher = more synergy
Outline: as §1

[16] = test system: NCI-H2342 (Lung Adenocarcinoma); test: as above
Outline: as §1

SK-MEL-2 (Melanoma) = test: as above
Outline: as §1

IST-MES1 (Mesothelioma) [17] = test: as above
Outline: as §1

Compound	combination Emax [1]	combination Emax [2]	combination Emax [3]	combination Emax [4]	combination Emax [5]	combination Emax [6]	combination Emax [7]	combination Emax [8]	combination Emax [9]	combination Emax [10]	combination Emax [11]	combination Emax [12]	combination Emax (SF539 (Glioblastoma))	combination Emax [13]	combination Emax (NB12 (Neuroblastoma))	combination Emax (IST-MES1 (Mesothelioma) [14])	Bliss excess [15]	Bliss excess [16]	Bliss excess (SK-MEL-2 (Melanoma))	Bliss excess (IST-MES1 (Mesothelioma) [17])
C[C@@H](Nc1cc(F)cc(F)c1)c1cc(C(=O)N(C)C)cc2c(=O)cc(N3CCOCC3)oc12 [AZD8186] + CC(=O)c1c(C)c2cnc(Nc3ccc(N4CCNCC4)cn3)nc2n(C2CCCC2)c1=O [Palbociclib] (first compound max 10 µM, 7x7, partner max 10 µM)	0.697	0.292	0.36	0.513	0.337	0.707	0.813	0.502	0.237	0.534	0.558	0.369	0.412	0.644	0.403	0.454	-0.138	0.0877	-0.0346	0.0167
C[C@@H](Oc1cc(-c2cnn(C3CCNCC3)c2)cnc1N)c1c(Cl)ccc(F)c1Cl [Crizotinib] + CC1=C(C(=CC=C1)Cl)NC(=O)C2=CN=C(S2)NC3=CC(=NC(=N3)C)N4CCN(CC4)CCO [Dasatinib] (first compound max 10 µM, 7x7, partner max 2 µM)	0.905	0.567	0.677	0.887	0.259	0.841	1	0.838	0.765	0.854	0.777	0.809	0.886	0.763	0.766	0.938	-0.0626	-0.0108	-0.0362	-0.0152
C[C@@H](Oc1cc(-c2cnn(C3CCNCC3)c2)cnc1N)c1c(Cl)ccc(F)c1Cl [Crizotinib] + Cn1cnc2c(F)c(Nc3ccc(Br)cc3Cl)c(C(=O)NOCCO)cc21 [Selumetinib] (first compound max 10 µM, 7x7, partner max 10 µM)	0.975	0.48	0.564	0.543	0.411	0.758	0.975	0.631	0.749	0.902	0.963	0.242	0.764	0.739	0.79	0.864	-0.0849	-0.0267	0.0382	-0.0311
CS(=O)(=O)CCNCc1ccc(-c2ccc3ncnc(Nc4ccc(OCc5cccc(F)c5)c(Cl)c4)c3c2)o1 [Lapatinib] + Cn1cnc2c(F)c(Nc3ccc(Br)cc3Cl)c(C(=O)NOCCO)cc21 [Selumetinib] (first compound max 10 µM, 7x7, partner max 10 µM)	0.712	0.369	0.477	0.812	0.387	0.597	0.99	0.521	0.485	0.635	0.748	0.653	0.601	0.556	0.354	0.55	-0.0646	-0.0418	0.0062	-0.0348
O=C(c1cc(Cc2n[nH]c(=O)c3ccccc23)ccc1F)N1CCN(C(=O)C2CC2)CC1 [Olaparib] + CC1(C)CCC(CN2CCN(c3ccc(C(=O)NS(=O)(=O)c4ccc(NCC5CCOCC5)c([N+](=O)[O-])c4)c(Oc4cnc5[nH]ccc5c4)c3)CC2)=C(c2ccc(Cl)cc2)C1 [Venetoclax] (first compound max 10 µM, 7x7, partner max 1 µM)	0.37	0.119	0.0638	0.12	0.258	1	0.205	0.137	0.347	0.201	0.192	0.153	0.358	0.301	0.922	0.283	-0.0009	-0.0201	0.0044	-0.0432
O=C(c1cc(Cc2n[nH]c(=O)c3ccccc23)ccc1F)N1CCN(C(=O)C2CC2)CC1 [Olaparib] + CN(CC[C@H](CSC1=CC=CC=C1)NC2=C(C=C(C=C2)S(=O)(=O)NC(=O)C3=CC=C(C=C3)N4CCC(CC4)[C@H](C5=CC=CC=C5C6=CC=C(C=C6)Cl)O)S(=O)(=O)C(F)(F)F)CCO [AZD4320] (first compound max 10 µM, 7x7, partner max 1 µM)	0.994	0.149	0.16	0.266	0.315	1	0.268	0.175	0.573	0.164	0.21	0.138	0.463	0.378	0.997	0.211	-0.0506	-0.018	-0.0397	-0.107
O=C(c1cc(Cc2n[nH]c(=O)c3ccccc23)ccc1F)N1CCN(C(=O)C2CC2)CC1 [Olaparib] + COc1nnc2ccc(N3CCC(c4ccc(OCCN5CCN(C)C(=O)[C@H]5C)cc4)CC3)nn12 [AZD5153] (first compound max 10 µM, 7x7, partner max 1 µM)	0.96	0.412	0.69	0.196	0.3	0.771	0.762	0.393	0.372	0.409	0.429	0.182	0.642	0.698	0.782	0.611	-0.0184	-0.0253	-0.0421	-0.117
O=C(c1cc(Cc2n[nH]c(=O)c3ccccc23)ccc1F)N1CCN(C(=O)C2CC2)CC1 [Olaparib] + Cc1c2c(nn1C)CSCc1cc(n(C)n1)CSc1cc(c3ccccc3c1)OCCCc1c(C(=O)O)n(C)c3c-2c(Cl)ccc13 [AZD5991] (first compound max 10 µM, 7x7, partner max 1 µM)	0.53	0.161	0.0932	0.128	0.288	0.771	1	0.184	0.301	0.185	0.214	0.0845	0.46	0.781	0.379	0.242	-0.0851	-0.0462	0.0379	-0.0434
N#Cc1cnc(Nc2cc(NC[C@H]3CNCCO3)c(C(F)(F)F)cn2)cn1 [SRA737] + C=CCn1c(=O)c2cnc(Nc3ccc(N4CCN(C)CC4)cc3)nc2n1-c1cccc(C(C)(C)O)n1 [AZD1775] (first compound max 10 µM, partner max 1 µM)	0.952	0.608	0.727	0.858	0.722	0.797	1	0.777	0.953	0.742	0.642	0.26	0.986	0.913	0.698	0.442	-0.0475	0.0225	0.098	0.0282
N#Cc1cnc(Nc2cc(NC[C@H]3CNCCO3)c(C(F)(F)F)cn2)cn1 [SRA737] + CCc1c2c(nc3ccc(O)cc13)-c1cc3c(c(=O)n1C2)COC(=O)[C@]3(O)CC [SN-38] (first compound max 10 µM, 7x7, partner max 0.3 µM)	0.944	0.858	0.865	0.844	0.912	0.947	1	0.838	0.906	0.868	0.908	0.72	0.971	0.927	0.705	0.759	-0.0136	0.0737	0.0931	-0.0108
N#Cc1cnc(Nc2cc(NC[C@H]3CNCCO3)c(C(F)(F)F)cn2)cn1 [SRA737] + Nc1ccn([C@@H]2O[C@H](CO)[C@@H](O)C2(F)F)c(=O)n1 [Gemcitabine] (first compound max 10 µM, 7x7, partner max 0.3 µM)	0.948	0.812	0.799	0.729	0.907	0.809	1	0.749	0.918	0.761	0.853	0.6	0.947	0.933	0.742	0.857	0.0485	0.14	0.0686	0.0486
N#Cc1cnc(Nc2cc(NC[C@H]3CNCCO3)c(C(F)(F)F)cn2)cn1 [SRA737] + O=c1[nH]cc(F)c(=O)[nH]1 [5-Fluorouracil] (first compound max 10 µM, 7x7, partner max 20 µM)	0.94	0.344	0.371	0.725	0.786	0.775	1	0.413	0.686	0.697	0.748	0.102	0.915	0.956	0.173	0.288	-0.0358	-0.0171	-0.025	-0.0169
Cc1nc(-c2cn3c(n2)-c2ccc(-c4cnn(C(C)(C)C(N)=O)c4)cc2OCC3)n(C(C)C)n1 [Taselisib] + O=C(Nc1ccc2[nH]nc(-c3ccncc3)c2c1)[C@@H]1CCN(CC(=O)N2CCN(c3ccc(-c4ncccn4)cc3)CC2)C1 [SCH772984] (first compound max 10 µM, 7x7, partner max 5 µM)	0.722	0.57	0.637	0.885	0.387	0.6	0.985	0.758	0.613	0.798	0.946	0.665	0.934	0.609	0.684	0.516	0.0543	0.103	0.136	-0.0307
